Measured values: US10131652B2, “Pyrimidinyloxy benzene derivatives as herbicides” (E. I. DU PONT DE NEMOURS AND COMPANY, priority 2014, dated 2018)
Read-outs that look alike come from different tables or passages of the source.

Experiments:
Test in all cases: Test E pre-/postemergence plant response
Format in all cases: in vivo
[1] = test system: Italian ryegrass (Lolium multiflorum); conditions: scale 0 to 100, read-out: Plant response rating, Ryegrass, Italian; for pest or weed control at 16 g/ha: 16 g ai/ha; for pest or weed control at 31 g/ha: 31 g ai/ha; for pest or weed control at 62 g/ha: 62 g ai/ha; for pest or weed control at 125 g/ha: 125 g ai/ha
Summary of the method: (§1)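 Pre-emergence: seeds sown in silt loam soil and sprayed with test chemicals in a non-phytotoxic solvent/surfactant mix. Post-emergence: plants at 2–18 cm (1- to 4-leaf stage) in peat/vermiculite medium treated with the same formulation. Visual rating versus controls after 7–21 days, 0 (no effect) to 100 (complete control).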

[2] = test system: blackgrass (Alopecurus myosuroides); conditions: scale 0 to 100, read-out: Plant response rating, Blackgrass; for pest or weed control at 16 g/ha: 16 g ai/ha; for pest or weed control at 31 g/ha: 31 g ai/ha; for pest or weed control at 62 g/ha: 62 g ai/ha; for pest or weed control at 125 g/ha: 125 g ai/ha
Summary of the method: as §1

[3] = test system: canarygrass (Phalaris minor); conditions: scale 0 to 100, read-out: Plant response rating, Canarygrass; for pest or weed control at 16 g/ha: 16 g ai/ha; for pest or weed control at 31 g/ha: 31 g ai/ha; for pest or weed control at 62 g/ha: 62 g ai/ha; for pest or weed control at 125 g/ha: 125 g ai/ha
Summary of the method: as §1

[4] = test system: chickweed (common chickweed, Stellaria media); conditions: scale 0 to 100, read-out: Plant response rating, Chickweed; for pest or weed control at 16 g/ha: 16 g ai/ha; for pest or weed control at 31 g/ha: 31 g ai/ha; for pest or weed control at 62 g/ha: 62 g ai/ha; for pest or weed control at 125 g/ha: 125 g ai/ha
Summary of the method: as §1

[5] = test system: deadnettle (henbit deadnettle, Lamium amplexicaule); conditions: scale 0 to 100, read-out: Plant response rating, Deadnettle; for pest or weed control at 16 g/ha: 16 g ai/ha; for pest or weed control at 31 g/ha: 31 g ai/ha; for pest or weed control at 62 g/ha: 62 g ai/ha; for pest or weed control at 125 g/ha: 125 g ai/ha
Summary of the method: as §1

[6] = test system: field violet (Viola arvensis); conditions: scale 0 to 100, read-out: Plant response rating, Field Violet; for pest or weed control at 16 g/ha: 16 g ai/ha; for pest or weed control at 31 g/ha: 31 g ai/ha; for pest or weed control at 62 g/ha: 62 g ai/ha; for pest or weed control at 125 g/ha: 125 g ai/ha
Summary of the method: as §1

[7] = test system: galium (catchweed bedstraw, Galium aparine); conditions: scale 0 to 100, read-out: Plant response rating, Galium; for pest or weed control at 16 g/ha: 16 g ai/ha; for pest or weed control at 31 g/ha: 31 g ai/ha; for pest or weed control at 62 g/ha: 62 g ai/ha; for pest or weed control at 125 g/ha: 125 g ai/ha
Summary of the method: as §1

[8] = test system: lambsquarters (Chenopodium album); conditions: scale 0 to 100, read-out: Plant response rating, Lambsquarters; for pest or weed control at 16 g/ha: 16 g ai/ha; for pest or weed control at 31 g/ha: 31 g ai/ha; for pest or weed control at 62 g/ha: 62 g ai/ha; for pest or weed control at 125 g/ha: 125 g ai/ha
Summary of the method: as §1

[9] = test system: pigweed (Amaranthus retroflexus); conditions: scale 0 to 100, read-out: Plant response rating, Pigweed; for pest or weed control at 16 g/ha: 16 g ai/ha; for pest or weed control at 31 g/ha: 31 g ai/ha; for pest or weed control at 62 g/ha: 62 g ai/ha; for pest or weed control at 125 g/ha: 125 g ai/ha
Summary of the method: as §1

[10] = test system: wild radish (Raphanus raphanistrum); conditions: scale 0 to 100, read-out: Plant response rating, Radish, Wild; for pest or weed control at 16 g/ha: 16 g ai/ha; for pest or weed control at 31 g/ha: 31 g ai/ha; for pest or weed control at 62 g/ha: 62 g ai/ha; for pest or weed control at 125 g/ha: 125 g ai/ha
Summary of the method: as §1

[11] = test system: winter barley (Hordeum vulgare); conditions: scale 0 to 100, read-out: Plant response rating, Barley, Winter; for plant injury at 16 g/ha: 16 g ai/ha; for plant injury at 31 g/ha: 31 g ai/ha; for plant injury at 62 g/ha: 62 g ai/ha; for plant injury at 125 g/ha: 125 g ai/ha
Summary of the method: as §1

Molecule `Fc1cccc(Oc2ncc(Cl)cn2)c1-c1cc(C(F)(F)F)on1` [Compound 168, 5-chloro-2-[2-[5-(trifluoromethyl)-3-isoxazolyl]-3-fluorophenoxy]pyrimidine] has a pest or weed control at 16 g/ha ([1]; post-emergence, Postemergence) of 5%, a pest or weed control at 31 g/ha ([1]; post-emergence, Postemergence) of 10% and a pest or weed control at 62 g/ha ([1]; post-emergence, Postemergence) of 20%. For the same molecule, the pest or weed control at 125 g/ha ([1]; post-emergence, Postemergence) was 25%, the pest or weed control at 16 g/ha ([1]; pre-emergence, Preemergence) was 0% and the pest or weed control at 31 g/ha ([1]; pre-emergence, Preemergence) was 0%. It also gave a pest or weed control at 62 g/ha ([1]; pre-emergence, Preemergence) of 30%, a pest or weed control at 125 g/ha ([1]; pre-emergence, Preemergence) of 75% and a pest or weed control at 16 g/ha ([2]; post-emergence, Postemergence) of 15%. The pest or weed control at 31 g/ha ([2]; post-emergence, Postemergence) was 25%, the pest or weed control at 62 g/ha ([2]; post-emergence, Postemergence) was 35% and the pest or weed control at 125 g/ha ([2]; post-emergence, Postemergence) was 60%. For the same molecule, the pest or weed control at 16 g/ha ([2]; pre-emergence, Preemergence) was 10%, the pest or weed control at 31 g/ha ([2]; pre-emergence, Preemergence) was 35% and the pest or weed control at 62 g/ha ([2]; pre-emergence, Preemergence) was 100%. The pest or weed control at 125 g/ha ([2]; pre-emergence, Preemergence) was 100%, the pest or weed control at 16 g/ha ([3]; post-emergence, Postemergence) was 15% and the pest or weed control at 31 g/ha ([3]; post-emergence, Postemergence) was 15%. For the same molecule, the pest or weed control at 62 g/ha ([3]; post-emergence, Postemergence) was 25%, the pest or weed control at 125 g/ha ([3]; post-emergence, Postemergence) was 55% and the pest or weed control at 16 g/ha ([3]; pre-emergence, Preemergence) was 15%. The pest or weed control at 31 g/ha ([3]; pre-emergence, Preemergence) was 15%, the pest or weed control at 62 g/ha ([3]; pre-emergence, Preemergence) was 100% and the pest or weed control at 125 g/ha ([3]; pre-emergence, Preemergence) was 100%. The pest or weed control at 16 g/ha ([4]; post-emergence, Postemergence) was 50%, the pest or weed control at 31 g/ha ([4]; post-emergence, Postemergence) was 45% and the pest or weed control at 62 g/ha ([4]; post-emergence, Postemergence) was 70%. It also gave a pest or weed control at 125 g/ha ([4]; post-emergence, Postemergence) of 90%, a pest or weed control at 16 g/ha ([4]; pre-emergence, Preemergence) of 100% and a pest or weed control at 31 g/ha ([4]; pre-emergence, Preemergence) of 80%. For the same molecule, the pest or weed control at 62 g/ha ([4]; pre-emergence, Preemergence) was 100%, the pest or weed control at 125 g/ha ([4]; pre-emergence, Preemergence) was 100% and the pest or weed control at 16 g/ha ([5]; post-emergence, Postemergence) was 20%. It also gave a pest or weed control at 31 g/ha ([5]; post-emergence, Postemergence) of 55%, a pest or weed control at 62 g/ha ([5]; post-emergence, Postemergence) of 75% and a pest or weed control at 125 g/ha ([5]; post-emergence, Postemergence) of 80%. The pest or weed control at 16 g/ha ([5]; pre-emergence, Preemergence) was 10%, the pest or weed control at 31 g/ha ([5]; pre-emergence, Preemergence) was 50% and the pest or weed control at 62 g/ha ([5]; pre-emergence, Preemergence) was 80%. The pest or weed control at 125 g/ha ([5]; pre-emergence, Preemergence) was 100%, the pest or weed control at 16 g/ha ([6]; post-emergence, Postemergence) was 75% and the pest or weed control at 31 g/ha ([6]; post-emergence, Postemergence) was 75%. For the same molecule, the pest or weed control at 62 g/ha ([6]; post-emergence, Postemergence) was 90%, the pest or weed control at 125 g/ha ([6]; post-emergence, Postemergence) was 95% and the pest or weed control at 16 g/ha ([6]; pre-emergence, Preemergence) was 85%. The pest or weed control at 31 g/ha ([6]; pre-emergence, Preemergence) was 100%, the pest or weed control at 62 g/ha ([6]; pre-emergence, Preemergence) was 100% and the pest or weed control at 125 g/ha ([6]; pre-emergence, Preemergence) was 100%. For the same molecule, the pest or weed control at 16 g/ha ([7]; post-emergence, Postemergence) was 75%, the pest or weed control at 31 g/ha ([7]; post-emergence, Postemergence) was 75% and the pest or weed control at 62 g/ha ([7]; post-emergence, Postemergence) was 80%. For the same molecule, the pest or weed control at 125 g/ha ([7]; post-emergence, Postemergence) was 85%, the pest or weed control at 16 g/ha ([7]; pre-emergence, Preemergence) was 60% and the pest or weed control at 31 g/ha ([7]; pre-emergence, Preemergence) was 60%. It also gave a pest or weed control at 62 g/ha ([7]; pre-emergence, Preemergence) of 100%, a pest or weed control at 125 g/ha ([7]; pre-emergence, Preemergence) of 100% and a pest or weed control at 16 g/ha ([8]; post-emergence, Postemergence) of 75%. It also gave a pest or weed control at 31 g/ha ([8]; post-emergence, Postemergence) of 85%, a pest or weed control at 62 g/ha ([8]; post-emergence, Postemergence) of 90% and a pest or weed control at 125 g/ha ([8]; post-emergence, Postemergence) of 95%. It also gave a pest or weed control at 16 g/ha ([8]; pre-emergence, Preemergence) of 45%, a pest or weed control at 31 g/ha ([8]; pre-emergence, Preemergence) of 100% and a pest or weed control at 62 g/ha ([8]; pre-emergence, Preemergence) of 100%. It also gave a pest or weed control at 125 g/ha ([8]; pre-emergence, Preemergence) of 100%, a pest or weed control at 16 g/ha ([9]; post-emergence, Postemergence) of 90% and a pest or weed control at 31 g/ha ([9]; post-emergence, Postemergence) of 80%. It also gave a pest or weed control at 62 g/ha ([9]; post-emergence, Postemergence) of 95%, a pest or weed control at 125 g/ha ([9]; post-emergence, Postemergence) of 95% and a pest or weed control at 16 g/ha ([9]; pre-emergence, Preemergence) of 55%. It also gave a pest or weed control at 31 g/ha ([9]; pre-emergence, Preemergence) of 100%, a pest or weed control at 62 g/ha ([9]; pre-emergence, Preemergence) of 100% and a pest or weed control at 125 g/ha ([9]; pre-emergence, Preemergence) of 100%. It also gave a pest or weed control at 16 g/ha ([10]; post-emergence, Postemergence) of 70%, a pest or weed control at 31 g/ha ([10]; post-emergence, Postemergence) of 75% and a pest or weed control at 62 g/ha ([10]; post-emergence, Postemergence) of 80%. It also gave a pest or weed control at 125 g/ha ([10]; post-emergence, Postemergence) of 85%, a pest or weed control at 16 g/ha ([10]; pre-emergence, Preemergence) of 0% and a pest or weed control at 31 g/ha ([10]; pre-emergence, Preemergence) of 45%. The pest or weed control at 62 g/ha ([10]; pre-emergence, Preemergence) was 100%, the pest or weed control at 125 g/ha ([10]; pre-emergence, Preemergence) was 100% and the plant injury at 16 g/ha ([11]; post-emergence, Postemergence) was 5%. For the same molecule, the plant injury at 31 g/ha ([11]; post-emergence, Postemergence) was 10%, the plant injury at 62 g/ha ([11]; post-emergence, Postemergence) was 10% and the plant injury at 125 g/ha ([11]; post-emergence, Postemergence) was 15%. For the same molecule, the plant injury at 16 g/ha ([11]; pre-emergence, Preemergence) was 0%, the plant injury at 31 g/ha ([11]; pre-emergence, Preemergence) was 5% and the plant injury at 62 g/ha ([11]; pre-emergence, Preemergence) was 25%. The plant injury at 125 g/ha ([11]; pre-emergence, Preemergence) was 40%.
